According to patent publication US4920103A, “Modifications of mycinose and 3-O-demethylmycinose in tylosin-type macrolides” (Eli Lilly and Company, priority 1986, dated 1990):
Values after ≈ are worked out from the molar mass of the structure shown. Values joined by “and” are separate entries in the source; they are usually repeats but may differ in a detail not shown here. Equal values may be shown once. Read-outs that look alike come from different tables or passages of the source.

Assays:
[1] = test system: Staphylococcus aureus X1.1; experiment: MIC, standard agar-dilution assay, S. aureus X1.1; format: cell-based
Description: (§1) The MIC's in Table II were determined by standard agar-dilution assays. The MIC's in Table III were obtained using conventional broth-dilution microtiter tests.

[2] = test system: Staphylococcus aureus V41; experiment: MIC, standard agar-dilution assay, S. aureus V41; format: cell-based
Description: as §1

[3] = test system: Staphylococcus aureus X400; experiment: MIC, standard agar-dilution assay, S. aureus X400; format: cell-based
Description: as §1

[4] = test system: Staphylococcus aureus S13E; experiment: MIC, standard agar-dilution assay, S. aureus S13E; format: cell-based
Description: as §1

[5] = test system: Staphylococcus epidermidis EPI1; experiment: MIC, standard agar-dilution assay, S. epidermidis EPI1; format: cell-based
Description: as §1

[6] = test system: Staphylococcus epidermidis 222; experiment: MIC, standard agar-dilution assay, S. epidermidis 222; format: cell-based
Description: as §1

[7] = test system: Streptococcus pyogenes C203; experiment: MIC, standard agar-dilution assay, S. pyogenes C203; format: cell-based
Description: as §1

[8] = test system: Streptococcus pneumoniae Park I; experiment: MIC, standard agar-dilution assay, S. pneumoniae Park I; format: cell-based
Description: as §1

[9] = test system: Streptococcus Group D X66; experiment: MIC, standard agar-dilution assay, Streptococcus Group D X66; format: cell-based
Description: as §1

[10] = test system: Streptococcus Group D 2041; experiment: MIC, standard agar-dilution assay, Streptococcus Group D 2041; format: cell-based
Description: as §1

[11] = test system: Haemophilus influenzae C.L.; experiment: MIC, standard agar-dilution assay, H. influenzae C.L.; format: cell-based
Description: as §1

[12] = test system: Haemophilus influenzae 76; experiment: MIC, standard agar-dilution assay, H. influenzae 76; format: cell-based
Description: as §1

Escherichia coli EC14 = experiment: MIC, standard agar-dilution assay, E. coli EC14; format: cell-based
Description: as §1

[13] = test system: Klebsiella pneumoniae X68; experiment: MIC, standard agar-dilution assay, K. pneumoniae X68; format: cell-based
Description: as §1

[14] = test system: Pseudomonas aeruginosa X239; experiment: MIC, standard agar-dilution assay, P. aeruginosa X239; format: cell-based
Description: as §1

Staphylococcus aureus = experiment: MIC, broth-dilution microtiter test, S. aureus; format: cell-based
Description: as §1

Streptococcus sp. 19F = experiment: MIC, broth-dilution microtiter test, Streptococcus sp. 19F; format: cell-based; details: broth-dilution microtiter
Description: as §1

[15] = test system: Pasteurella multocida 17E; experiment: MIC, broth-dilution microtiter test, P. multocida 17E; format: cell-based
Description: as §1

[16] = test system: Pasteurella multocida 60A; experiment: MIC, broth-dilution microtiter test, P. multocida 60A; format: cell-based
Description: as §1

[17] = test system: Pasteurella multocida 40G; experiment: MIC, broth-dilution microtiter test, P. multocida 40G; format: cell-based
Description: as §1

[18] = test system: Pasteurella multocida 22A; experiment: MIC, broth-dilution microtiter test, P. multocida 22A; format: cell-based
Description: as §1

[19] = test system: Pasteurella multocida 68C; experiment: MIC, broth-dilution microtiter test, P. multocida 68C; format: cell-based
Description: as §1

[20] = test system: Pasteurella hemolytica 23C; experiment: MIC, broth-dilution microtiter test, P. hemolytica 23C; format: cell-based
Description: as §1

[21] = test system: Pasteurella hemolytica 41D; experiment: MIC, broth-dilution microtiter test, P. hemolytica 41D; format: cell-based
Description: as §1

[22] = test system: Pasteurella hemolytica 22C; experiment: MIC, broth-dilution microtiter test, P. hemolytica 22C; format: cell-based
Description: as §1

[23] = test system: Bordetella bronchiseptica; experiment: MIC, broth-dilution microtiter test, B. bronchiseptica; format: cell-based
Description: as §1

[24] = test system: Mycoplasma gallisepticum 29C; experiment: MIC, broth-dilution microtiter test, M. gallisepticum 29C; format: cell-based; details: Mycoplasmoides gallisepticum, broth-dilution microtiter, read-out: MIC
Description: as §1

[25] = test system: Mycoplasma gallisepticum 15E; experiment: MIC, broth-dilution microtiter test, M. gallisepticum 15E; format: cell-based; details: Mycoplasmoides gallisepticum, broth-dilution microtiter, read-out: MIC
Description: as §1

[26] = test system: Mycoplasma gallisepticum 36H; experiment: MIC, broth-dilution microtiter test, M. gallisepticum 36H; format: cell-based; details: Mycoplasmoides gallisepticum, broth-dilution microtiter, read-out: MIC
Description: as §1

[27] = test system: Mycoplasma hyopneumoniae S5972; experiment: MIC, broth-dilution microtiter test, M. hyopneumoniae S5972; format: cell-based; details: broth-dilution microtiter
Description: as §1

[28] = test system: Streptococcus pyogenes C203; experiment: Protection of mice experimentally infected with Streptococcus pyogenes C203; format: in vivo; details: doses given 1 and 4 hours postinfection
Description: The formula 1 compounds have shown in vivo antimicrobial activity against experimentally-induced infections in laboratory animals. When two doses of test compound were administered to mice experimentally infected with Streptococcus pyogenes C203, the activity observed was measured as an ED50 value [effective dose in mg/kg to protect 50% of the test animals: see Warren Wick, et al., J. Bacteriol. 81, 233-235 (1961)].
^a mg/kg × 2; doses given 1 and 4 hours postinfection

Mycoplasma synoviae 40A = experiment: MIC, broth-dilution microtiter test, M. synoviae 40A; format: cell-based
Description: as §1

Mycoplasma hyorhinis 29E = experiment: MIC, broth-dilution microtiter test, M. hyorhinis 29E; format: cell-based; details: broth-dilution microtiter
Description: as §1

[29] = Streptococcus, SP.19F, read-out: MIC
[30] = broth-dilution microtiter, read-out: MIC
[31] = Mesomycoplasma hyopneumoniae, S5972, read-out: MIC

Question: `CCC1OC(=O)CC(O)C(C)C(OC2OC(C)C(O)C(N(C)C)C2O)C(CCOc2ccccc2)CC(C)C(=O)C=CC(C)=CC1COC1OC(C)C(N)C(OC)C1OC` (stereo not drawn) [Compound 21, 4"-Amino-4"-deoxy-20-DH-20-O-phenyl-desmycosin] was tested. Which MIC [1] did it give?
Answer: 0.25 µg/mL (≈ 0.294 µM)

Question: And the MIC ([2]; Staphylococcus aureus, V41)?
Answer: 0.5 µg/mL (≈ 0.589 µM)

Question: And the MIC [3]?
Answer: 0.25 µg/mL (≈ 0.294 µM)

Question: What about the MIC [4] of the same compound?
Answer: 0.25 µg/mL (≈ 0.294 µM)

Question: What about the MIC [5] of the same compound?
Answer: 0.5 µg/mL (≈ 0.589 µM)

Question: What about the MIC [6] of the same compound?
Answer: 0.25 µg/mL (≈ 0.294 µM)

Question: And the MIC ([7]; Streptococcus pyogenes, C203)?
Answer: 0.5 µg/mL (≈ 0.589 µM)

Question: And the MIC ([8]; Streptococcus pneumoniae, agar-dilution, read-out: MIC)?
Answer: 1 µg/mL (≈ 1.18 µM)

Question: What about the MIC [9] of the same compound?
Answer: 4 µg/mL (≈ 4.71 µM)

Question: What about the MIC ([10]; GROUPD2041, agar-dilution, read-out: MIC) of the same compound?
Answer: 8 µg/mL (≈ 9.42 µM)

Question: What about the MIC [11] of the same compound?
Answer: 32 µg/mL (≈ 37.7 µM)

Question: What about the MIC [12] of the same compound?
Answer: 16 µg/mL (≈ 18.8 µM)

Question: And the MIC (Escherichia coli EC14; agar-dilution, read-out: MIC)?
Answer: > 128 µg/mL

Question: What about the MIC ([13]; agar-dilution, read-out: MIC) of the same compound?
Answer: > 128 µg/mL

Question: What about the MIC ([14]; agar-dilution, read-out: MIC) of the same compound?
Answer: > 128 µg/mL

Question: What about the MIC (Staphylococcus aureus) of the same compound?
Answer: 0.39 µg/mL (≈ 0.459 µM)

Question: And the MIC (Streptococcus sp. 19F; [29])?
Answer: 3.12 µg/mL (≈ 3.67 µM)

Question: And the MIC ([15]; Pasteurella multocida, 17E, broth-dilution microtiter, bovine isolate, read-out: MIC)?
Answer: 25 µg/mL (≈ 29.4 µM)

Question: What about the MIC ([16]; broth-dilution microtiter, avian isolate, read-out: MIC) of the same compound?
Answer: 12.5 µg/mL (≈ 14.7 µM)

Question: And the MIC [17, 30]?
Answer: 6.25 µg/mL (≈ 7.36 µM)

Question: And the MIC [18, 30]?
Answer: 12.5 µg/mL (≈ 14.7 µM)

Question: What about the MIC [19, 30] of the same compound?
Answer: 12.5 µg/mL (≈ 14.7 µM)

Question: What about the MIC [20, 30] of the same compound?
Answer: 25 µg/mL (≈ 29.4 µM)

Question: And the MIC [21, 30]?
Answer: 12.5 µg/mL (≈ 14.7 µM)

Question: And the MIC [22, 30]?
Answer: 25 µg/mL (≈ 29.4 µM)

Question: What about the MIC [23, 30] of the same compound?
Answer: > 50 µg/mL

Question: What about the MIC [24] of the same compound?
Answer: 1.56 µg/mL (≈ 1.84 µM)

Question: And the MIC [25]?
Answer: > 50 µg/mL

Question: And the MIC [26]?
Answer: > 50 µg/mL

Question: What about the MIC [27, 31] of the same compound?
Answer: 50 µg/mL (≈ 58.9 µM)

Question: And the ED50 ([28]; Streptococcus pyogenes, C203, oral, read-out: ED50)?
Answer: 57.4 mg/kg

Question: And the ED50 ([28]; Streptococcus pyogenes, C203, sc, subcutaneous, read-out: ED50)?
Answer: > 10 mg/kg

Question: What does the source list for `CCC1OC(=O)CC(O)C(C)C(OC2OC(C)C(O)C(N(C)C)C2O)C(CCOc2ccccc2)CC(C)C(=O)C=CC(C)=CC1COC1OC(C)C(OC)C(OC)C1OC` (stereo not drawn) [Compound 13, 4"-O-Methyl-20-DH-20-O-phenyl-desmycosin]?
Answer: MIC ([2]; agar-dilution, penicillin-resistant strain): 2 µg/mL (≈ 2.31 µM); MIC ([7]; agar-dilution): 4 µg/mL (≈ 4.63 µM); MIC ([8]; agar-dilution): 4 µg/mL (≈ 4.63 µM); MIC ([9]; agar-dilution): 16 µg/mL (≈ 18.5 µM); MIC ([10]; agar-dilution): 16 µg/mL (≈ 18.5 µM); MIC (Streptococcus sp. 19F): 6.25 µg/mL (≈ 7.23 µM); MIC ([15]; broth-dilution microtiter, bovine isolate): -- (not active at 50 mcg/mL); MIC (Mycoplasma synoviae 40A; broth-dilution microtiter): 6.25 µg/mL (≈ 7.23 µM); MIC (Mycoplasma hyorhinis 29E): 25 µg/mL (≈ 28.9 µM); MIC [27]: > 25 µg/mL; ED50 ([28]; oral): 18.8 mg/kg × 2 and 22.4 mg/kg × 2; ED50 ([28]; subcutaneous): > 10 mg/kg × 2

Question: Which MIC [1] does the source give for `CCC1OC(=O)CC(O)C(C)C(OC2OC(C)C(OC(C)=O)C(N(C)C)C2OC(C)=O)C(CCOc2ccccc2)CC(C)C(=O)C=CC(C)=CC1COC1OC(C)CC(OC)C1OC` (stereo not drawn) [Compound 10, 2',4'-Di-O-acetyl-4"-deoxy-20-DH-20-O-phenyl-desmycosin] here?
Answer: 0.25 µg/mL (≈ 0.272 µM)

Question: What about the MIC ([2]; Staphylococcus aureus, V41) of the same compound?
Answer: 0.5 µg/mL (≈ 0.545 µM)

Question: What about the MIC [3] of the same compound?
Answer: 0.5 µg/mL (≈ 0.545 µM)

Question: And the MIC [4]?
Answer: 0.5 µg/mL (≈ 0.545 µM)

Question: And the MIC [5]?
Answer: 0.25 µg/mL (≈ 0.272 µM)

Question: And the MIC [6]?
Answer: 0.25 µg/mL (≈ 0.272 µM)

Question: And the MIC ([7]; Streptococcus pyogenes, C203)?
Answer: 0.5 µg/mL (≈ 0.545 µM)

Question: What about the MIC ([8]; Streptococcus pneumoniae) of the same compound?
Answer: 0.5 µg/mL (≈ 0.545 µM)

Question: And the MIC [9]?
Answer: 2 µg/mL (≈ 2.18 µM)

Question: And the MIC ([10]; GROUPD2041)?
Answer: 4 µg/mL (≈ 4.36 µM)

Question: And the MIC [11]?
Answer: 64 µg/mL (≈ 69.7 µM)

Question: What about the MIC [12] of the same compound?
Answer: 64 µg/mL (≈ 69.7 µM)

Question: And the MIC (Escherichia coli EC14)?
Answer: > 128 µg/mL

Question: And the MIC [13]?
Answer: > 128 µg/mL

Question: And the MIC [14]?
Answer: > 128 µg/mL

Question: And the MIC (Staphylococcus aureus)?
Answer: 0.78 µg/mL (≈ 0.85 µM)

Question: What about the MIC (Streptococcus sp. 19F; [29]) of the same compound?
Answer: 6.25 µg/mL (≈ 6.81 µM)

Question: And the MIC ([15]; Pasteurella multocida, 17E)?
Answer: 50 µg/mL (≈ 54.5 µM)

Question: And the MIC [16]?
Answer: > 50 µg/mL

Question: And the MIC [17]?
Answer: > 50 µg/mL

Question: And the MIC [18]?
Answer: > 50 µg/mL

Question: What about the MIC [19] of the same compound?
Answer: 50 µg/mL (≈ 54.5 µM)

Question: And the MIC [20]?
Answer: 50 µg/mL (≈ 54.5 µM)

Question: What about the MIC [21] of the same compound?
Answer: 50 µg/mL (≈ 54.5 µM)

Question: And the MIC [22]?
Answer: > 50 µg/mL

Question: And the MIC [23]?
Answer: > 50 µg/mL

Question: What about the MIC [24] of the same compound?
Answer: < 0.048 µg/mL

Question: What about the MIC [26] of the same compound?
Answer: 25 µg/mL (≈ 27.2 µM)

Question: And the MIC (Mycoplasma synoviae 40A; Mycoplasmopsis synoviae, 40A)?
Answer: 3.12 µg/mL (≈ 3.4 µM)

Question: And the MIC (Mycoplasma hyorhinis 29E; Mycoplasma, 29E, read-out: MIC)?
Answer: 25 µg/mL (≈ 27.2 µM)

Question: What about the MIC [27, 31] of the same compound?
Answer: 6.25 µg/mL (≈ 6.81 µM)
